Data: US8193170B2, “2-methylene-19,26-dinor-(20R,22E,25R)-vitamin D analogs” (Wisconsin Alumni Research Foundation, priority 2008, dated 2012)
“Also recorded” adds a separate entry of the source.

How the values were obtained:
HL-60 cells = assay: HL-60 cell differentiation (nitro blue tetrazolium reduction); type: cell-based, human; conditions: for EC50: differentiation of HL-60 cells into monocytes, FIG. 2
Protocol: The study drugs were dissolved in ethanol and the concentrations determined using UV spectrophotometry. Serial dilutions were prepared so that a range of drug concentrations could be tested without changing the final concentration of ethanol (≦0.2%) present in the cell cultures.
Human promyelocytic leukemia (HL60) cells were grown in RPMI-1640 medium containing 10% fetal bovine serum. The cells were incubated at 37° C. in the presence of 5% CO2.
HL60 cells were plated at 1.2×10^5 cells/ml. Eighteen hours after plating, cells in duplicate were treated with drug. Four days later, the cells were harvested and a nitro blue tetrazolium reduction assay was performed (Collins et al., 1979; J. Exp. Med. 149:969-974). The percentage of differentiated cells was determined by counting a total of 200 cells and recording the number that contained intracellular black-blue formazan deposits. Verification of differentiation to monocytic cells was determined by measuring phagocytic activity (data not shown).

[1] = test system: 24-hydroxylase (24Ohase) gene promoter in ROS 17/2.8 (bone) cells; assay: In vitro transcription assay (24-hydroxylase gene promoter luciferase reporter); type: cell-based; conditions: for EC50: ROS 17/2.8 cells, 24-hydroxylase promoter-luciferase, FIG. 3, read-out: EC50, transcriptional activity in bone cells
Protocol: Transcription activity was measured in ROS 17/2.8 (bone) cells that were stably transfected with a 24-hydroxylase (24Ohase) gene promoter upstream of a luciferase reporter gene (Arbour et al., 1998). Cells were given a range of doses. Sixteen hours after dosing the cells were harvested and luciferase activities were measured using a luminometer.
RLU=relative luciferase units.

[2] = Bone calcium mobilization (serum calcium) in vitamin D-deficient rats; type: in vivo, rat; conditions: rats on 0.02% Ca diet, FIG. 4
Protocol: (§1) Male, weanling Sprague-Dawley rats were placed on Diet 11 (0.47% Ca) diet+AEK oil for one week followed by Diet 11 (0.02% Ca)+AEK oil for 3 weeks. The rats were then switched to a diet containing 0.47% Ca for one week followed by two weeks on a diet containing 0.02% Ca. Dose administration began during the last week on 0.02% calcium diet. Four consecutive ip doses were given approximately 24 hours apart. Twenty-four hours after the last dose, blood was collected from the severed neck and the concentration of serum calcium determined as a measure of bone calcium mobilization. The first 10 cm of the intestine was also collected for intestinal calcium transport analysis using the everted gut sac method.

[3] = biological target: T1, full-length recombinant rat vitamin D receptor (Rattus norvegicus, UniProt P13053); assay: Vitamin D receptor competitive binding with [3H]-1,25(OH)2D3
T1 construct: Full-length recombinant rat receptor was expressed in E. coli; histidine tag (C); made in house; host or cells: E. coli BL21 (DE3) Codon Plus RIL
T1 sequence (P13053 1-423): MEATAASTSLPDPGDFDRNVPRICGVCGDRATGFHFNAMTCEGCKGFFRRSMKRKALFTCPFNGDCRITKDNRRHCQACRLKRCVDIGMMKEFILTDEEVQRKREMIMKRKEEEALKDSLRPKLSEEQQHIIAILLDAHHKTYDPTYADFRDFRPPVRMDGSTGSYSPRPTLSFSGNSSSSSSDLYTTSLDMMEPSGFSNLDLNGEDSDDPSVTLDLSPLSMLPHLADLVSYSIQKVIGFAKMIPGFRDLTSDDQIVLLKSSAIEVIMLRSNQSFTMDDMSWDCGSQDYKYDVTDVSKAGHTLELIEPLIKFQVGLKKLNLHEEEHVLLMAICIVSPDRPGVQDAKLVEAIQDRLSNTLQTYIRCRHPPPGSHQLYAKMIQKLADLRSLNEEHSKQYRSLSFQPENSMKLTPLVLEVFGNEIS
Protocol: Full-length recombinant rat receptor was expressed in E. coli BL21 (DE3) Codon Plus RIL cells and purified to homogeneity using two different column chromatography systems. The first system was a nickel affinity resin that utilizes the C-terminal histidine tag on this protein. The protein that was eluted from this resin was further purified using ion exchange chromatography (S-Sepharose Fast Flow). Aliquots of the purified protein were quick frozen in liquid nitrogen and stored at −80° C. until use. For use in binding assays, the protein was diluted in TEDK50 (50 mM Tris, 1.5 mM EDTA, pH7.4, 5 mM DTT, 150 mM KCl) with 0.1% Chaps detergent. The receptor protein and ligand concentration were optimized such that no more than 20% of the added radiolabeled ligand was bound to the receptor.
Radiolabeled and unlabeled ligands were added to 100 mcl of the diluted protein at a final ethanol concentration of ≦10%, mixed and incubated overnight on ice to reach binding equilibrium. The following day, 100 mcl of hydroxylapatite slurry (50%) was added to each tube and mixed at 10-minute intervals for 30 minutes. The hydroxylapaptite was collected by centrifugation and then washed three times with Tris-EDTA buffer (50 mM Tris, 1.5 mM EDTA, pH 7.4) containing 0.5% Titron X-100. […] Total binding was determined from the tubes containing only radiolabeled ligand.

[4] = Intestinal calcium transport, everted gut sac method, in vitamin D-deficient rats; type: in vivo, rat; conditions: FIG. 5
Protocol: as §1

[5] = 780 pmol/day ip for 4 consecutive days

| SMILES | EC50 (HL-60 cells) [nM] | EC50 [1] [nM] | Bone calcium mobilization (serum calcium) [2, 5] | Serum calcium levels ([2]; all dosages tested) | EC50 (HL-60 cells; Homo sapiens) [nM] | HL-60 cell differentiation activity relative to 1,25(OH)2D3 (times more) (HL-60 cells; more active than 1,25(OH)2D3) | Transcription activity of the 24-hydroxylase gene relative to 1,25(OH)2D3 (times more) ([1]; more potent than 1,25(OH)2D3, bone cells) | Bone calcium mobilization (serum calcium) ([2]; 2,340 pmol/day ip for 4 consecutive days) | Ki ([3]; full-length recombinant rat VDR, FIG. 1, read-out: Ki, competition with [3H]-1,25(OH)2D3 for binding to the vitamin D receptor) [nM] | VDR binding potency relative to 1,25(OH)2D3 (times less potent) ([3]; less potent than 1,25(OH)2D3) | Intestinal calcium transport activity [4, 5] | Intestinal calcium transport, dose dependence ([4]; range of doses) |
| --- | --- | --- | --- | --- | --- | --- | --- | --- | --- | --- | --- | --- |
| C=C1/C(=C\C=C2/CCC[C@]3(C)[C@@H]([C@H](C)CCCC(C)(C)O)CC[C@@H]23)C[C@@H](O)C[C@@H]1O [1,25(OH)2D3, 1α,25-dihydroxyvitamin D3, reference compound] | 2 | 0.2 | significant activity | increased serum calcium levels at all dosages | – | – | – | – | – | – | – | – |
| C=C1[C@H](O)CC(=C/C=C2\CCC[C@]3(C)[C@@H]([C@H](C)/C=C/C[C@@H](C)O)CC[C@@H]23)C[C@H]1O [RR-22, 2-methylene-19,26-dinor-(20R,22E,25R)-1α,25-dihydroxyvitamin D3] | – | 0.02 | – | – | 0.2 | about 10 times | about 10 times | did not result in any mobilization of bone calcium; also recorded: no bone calcium mobilization activity | 0.1 | about 10 times | almost the same activity as 1,25(OH)2D3 | promotes intestinal calcium transport in a dose dependent manner |
